Source: ChEMBL document CHEMBL1137996, “Design, synthesis, and activity of 4-quinolone and pyridone compounds as nonthiol-containing farnesyltransferase inhibitors” (Bioorg Med Chem Lett, 2004)

Legend:
[1] = molecular target: T1, Protein farnesyltransferase (Mus musculus, UniProt Q61239+Q8K2I1); assay: Inhibition of Ras farnesylation in H-Ras transformed NIH3T3 cells; type: functional, cell-based
[2] = molecular target: Protein farnesyltransferase (Bos taurus, UniProt P29702+P49355); assay: Inhibition of Bovine farnesyltransferase (FTase); type: protein-complex assay
[3] = molecular target: Geranylgeranyl transferase type I (Bos taurus, UniProt P29702+Q5EAD5); assay: Inhibition of Bovine geranylgeranyltransferase (GGT); type: protein-complex assay
[4] = molecular target: T1, Protein farnesyltransferase; assay: Inhibition of Ras farnesylation in H-Ras transformed NIH3T3 cells at 100 nM; type: functional, cell-based

| SMILES | IC50 [2] | IC50 [3] | Inhibition [4] | Inhibition ([4]; nih3t3) | EC50 [1] | EC50 ([1]; nih3t3) |
| --- | --- | --- | --- | --- | --- | --- |
| NC(=O)N1CCC(CC(=O)N2CCC([C@H]3c4ncc(Br)cc4CCc4cc(Cl)cc(Br)c43)CC2)CC1 [LONAFARNIB] | 8.3 nM | > 10000 nM |  |  | 100 nM |  |
| Cn1cncc1[C@@](N)(c1ccc(Cl)cc1)c1ccc2c(c1)c(-c1cccc(Cl)c1)cc(=O)n2C [TIPIFARNIB] |  |  |  |  |  | 1.6 nM |
| Cn1cncc1C(OCc1cc(=O)c(C#N)cn1-c1cccc(Cl)c1)c1ccc(C#N)cc1 (stereo unspecified) | 12 nM | > 10000 nM |  | 4% |  |  |

The remaining molecules from weak to strong by IC50 [2], led by results:

| IC50 [2] | IC50 [3] | Inhibition [4] | Inhibition ([4]; nih3t3) | SMILES | EC50 [1] | EC50 ([1]; nih3t3) |
| --- | --- | --- | --- | --- | --- | --- |
| 685 nM |  |  |  | Cn1cncc1C(NC(=O)c1cn(C)c(=O)cc1-c1cccc(Cl)c1)c1ccc(C#N)cc1 (stereo unspecified) |  |  |
| 17 nM | > 10000 nM | 21% |  | Cn1c(CNCc2cncn2Cc2ccc(C#N)cc2)c(-c2cccc(Cl)c2)cc(C#N)c1=O |  |  |
| 12 nM | 16000 nM | 51% |  | Cn1cncc1C(O)(c1ccc(Cl)cc1)c1ccc2c(=O)c(C#N)cn(-c3cccc(Cl)c3)c2c1 (stereo unspecified) |  |  |
| 7.9 nM | > 10000 nM |  |  | N#Cc1ccc(Cn2cncc2CNCc2cc(=O)c(C#N)cn2-c2cccc(Cl)c2)cc1 |  |  |
